Assay results from patent publication US8278343B2, “Pyrrolidines” (Pfizer Inc., priority 2008, dated 2012).

target: T1, recombinant human EP-2 receptor (Homo sapiens, UniProt P43116); experiment: In vitro antagonist potency against recombinant human prostaglandin E2 (EP-2) receptor in CHO cells (cAMP, Protocol 1); assay type: cell-based; conditions: CHO cells expressing recombinant human EP-2 receptor, stimulated with 5 nM PGE2; cAMP readout; Ki by Cheng-Prusoff equation; read-out: EP2 Ki
T1 construct: stably transfected with full length cDNA encoding human Prostaglandin E2; expressed in transfected cells
Protocol: 1.0 Measurement of In Vitro Antagonist Potency (IC50) of Compounds Against Recombinant Human Prostaglandin E2 Receptor in CHO Cells
The prostaglandin E2 (EP-2) receptor is Gs coupled and agonism of the receptor by PGE2 results in activation of intracellular adenylate cyclase enzymes that synthesise the second messenger signalling molecule, adenosine 3′,5′-cyclic monophosphate (cAMP). CHO cells expressing the recombinant human EP-2 receptor are stimulated with PGE2 (5 nM) equivalent to approximately […] values to give the maximal cAMP signal. Decreases in cAMP levels following treatment of stimulated recombinant EP-2 cells with potential antagonist compounds were measured and potency (IC50) calculated as follows.
A Chinese hamster ovary (CHO) cell line stably transfected with full length cDNA encoding human Prostaglandin E2 was established using standard molecular biology methods. Test compounds were dissolved in dimethyl sulphoxide (DMSO) at 4 mM. 11 point half log unit increment dilution series of test compound were prepared in DMSO then diluted 1 in 40 in a buffer comprised of phosphate buffered saline (PBS) and 0.05% pluronic F-127 surfactant. Freshly cultured cells at 80-90% confluence were harvested and re-suspended in 90% growth media/10% DMSO. The cells were frozen using a planar freezer and stored in frozen aliquots in cryovials in liquid nitrogen until the day of the experiment. A vial of cells was defrosted in a 37° C. water bath for 2 min, then transferred to 10 ml of Dulbecco's Modified Eagle's Medium (DMEM). The cells were then centrifuged for 5 min at 1000 g and the pellet re-suspended at 1,000,000 cells/ml in DMEM. 5,000 cells (5 ul) were added to 5 ul of the compound dilution series in a 384 well assay plate and pre-incubated for 30 min at 37° C. 5 ul of agonist (15 nM PGE2 in PBS to give 5 nM FAC) was added and plates further incubated for 90 min at 37° C. The relative cAMP concentration in each well was then measured using a β-galactosidase enzyme fragment complementation method purchased in kit form as the Discoverx cAMP II kit from GE Healthcare, UK. […] Sigmoidal curves were fitted to plots of log10 inhibitor concentration vs percent effect. IC50 estimates were determined as the concentration of test compound giving an effect half way between the bottom and top asymptotes of the sigmoidal dose response curve. Each experiment included an IC50 determination for the literature compound as a standard to track assay consistency and allow fair comparison between values obtained in different experiments. The EC50 of PGE2 is used in combination with the ligand concentration in the assay to determine Ki values for antagonist dose responses using the Cheng-Prusoff equation. Consequently an agonist dose response curve is carried out for each experiment using the same incubation as the antagonist plate.

T1 sequence (P43116 whole entry): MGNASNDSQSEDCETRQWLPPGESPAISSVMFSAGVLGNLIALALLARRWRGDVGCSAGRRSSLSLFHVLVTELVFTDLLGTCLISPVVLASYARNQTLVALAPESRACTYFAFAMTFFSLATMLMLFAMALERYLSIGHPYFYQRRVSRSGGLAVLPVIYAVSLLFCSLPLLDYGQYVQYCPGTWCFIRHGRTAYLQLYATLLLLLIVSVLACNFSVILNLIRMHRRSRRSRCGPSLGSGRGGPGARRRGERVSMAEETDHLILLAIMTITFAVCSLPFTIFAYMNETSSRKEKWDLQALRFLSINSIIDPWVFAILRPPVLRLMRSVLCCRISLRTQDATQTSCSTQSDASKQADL

Ki | Compound
0.633 nM | COc1ccc(C(=O)N2CCC(COc3ccc(-c4ccc(C#N)cc4)cc3)(C(=O)O)C2)cc1 (single isomer, unassigned) [Example 1, 3-(4′-Cyano-biphenyl-4-yloxymethyl)-1-(4-methoxy-benzoyl)-pyrrolidine-3-carboxylic acid]
0.344 nM | N#Cc1ccc(-c2ccc(OCC3(C(=O)O)CCN(C(=O)c4ccc(F)cc4)C3)cc2)cc1 (single isomer, unassigned) [Example 2, 3-(4′-Cyano-biphenyl-4-yloxymethyl)-1-(4-fluoro-benzoyl)-pyrrolidine-3-carboxylic acid]
1.64 nM | O=C(c1ccc(F)cc1)N1CCC(COc2cnc(-c3ccc(Cl)cc3)nc2)(C(=O)O)C1 (single isomer, unassigned) [Example 5]
102 nM | O=C(c1ccc(F)cc1)N1CCC(COc2cnc(-c3ccc(Cl)cc3)nc2)(C(=O)O)C1 (single isomer, unassigned) [Example 6]
2.97 nM | O=C(c1ccc(F)cc1)N1CCC(COc2ccc(-c3ccc(Cl)cc3)nc2)(C(=O)O)C1 (single isomer, unassigned) [Example 7]
0.741 nM | O=C(c1ccc(F)cc1)N1CCC(COc2cnc(-c3ccc(Cl)cc3)cn2)(C(=O)O)C1 (single isomer, unassigned) [Example 10]
28.9 nM | O=C(c1ccc(F)cc1)N1CCC(COc2cnc(-c3ccc(Cl)cc3)cn2)(C(=O)O)C1 (single isomer, unassigned) [Example 11]
4.82 nM | O=C(c1ccc(F)cc1)N1CCC(COc2ccc(-c3ccc(Cl)cn3)cc2)(C(=O)O)C1 (single isomer, unassigned) [Example 12]
333 nM | O=C(c1ccc(F)cc1)N1CCC(COc2ccc(-c3ccc(Cl)cn3)cc2)(C(=O)O)C1 (single isomer, unassigned) [Example 13]
522 nM | O=C(c1ccc(F)cc1)N1CCC(COc2cccc(F)c2F)(C(=O)O)C1 (single isomer, unassigned) [Example 14]
84.7 nM | O=C(c1ccc(F)cc1)N1CCC(COc2ccc(-c3ncc(Cl)cn3)cc2)(C(=O)O)C1 (single isomer, unassigned) [Example 15]
0.692 nM | O=C(c1ccc(F)cc1)N1CCC(COc2ccc(-c3ncc(Cl)cn3)cc2)(C(=O)O)C1 (single isomer, unassigned) [Example 16]
2.01 nM | O=C(c1ccc(F)cc1)N1CCC(COc2ccc(-c3ccc(F)cc3)cc2)(C(=O)O)C1 (single isomer, unassigned) [Example 17]
17.2 nM | O=C(c1ccc(F)cc1)N1CCC(COc2ccc(-c3ccc(F)cc3)cc2)(C(=O)O)C1 (single isomer, unassigned) [Example 18]
192 nM | O=C(c1ccc(F)cc1)N1CCC(COc2ccc(F)c(Cl)c2)(C(=O)O)C1 (single isomer, unassigned) [Example 25]
0.0376 nM | N#Cc1ccc(-c2ccc(OCC3(C(=O)O)CCN(C(=O)c4ccc(Cl)cc4)C3)cc2)cc1 (single isomer, unassigned) [Example 26]
4.34 nM | N#Cc1ccc(-c2ccc(OCC3(C(=O)O)CCN(C(=O)c4ccc(Cl)cc4)C3)cc2)cc1 (single isomer, unassigned) [Example 27]
0.461 nM | O=C(c1ccc(Cl)cc1)N1CCC(COc2ccc(-c3ncc(Cl)cn3)cc2)(C(=O)O)C1 (single isomer, unassigned) [Example 30]
282 nM | O=C(c1ccc(Cl)cc1)N1CCC(COc2ccc(-c3ncc(Cl)cn3)cc2)(C(=O)O)C1 (single isomer, unassigned) [Example 31]
0.735 nM | O=C(c1ccc(Cl)cc1)N1CCC(COc2ccc(-c3ccc(Cl)cc3)nc2)(C(=O)O)C1 (single isomer, unassigned) [Example 32]
141 nM | O=C(c1ccc(Cl)cc1)N1CCC(COc2ccc(-c3ccc(Cl)cc3)nc2)(C(=O)O)C1 (single isomer, unassigned) [Example 33]
0.743 nM | O=C(c1ccc(Cl)cc1)N1CCC(COc2cnc(-c3ccc(Cl)cc3)cn2)(C(=O)O)C1 (single isomer, unassigned) [Example 34]
105 nM | O=C(c1ccc(Cl)cc1)N1CCC(COc2cnc(-c3ccc(Cl)cc3)cn2)(C(=O)O)C1 (single isomer, unassigned) [Example 35]
1.16 nM | O=C(c1ccc(Cl)cc1)N1CCC(COc2ccc(-c3ccc(F)cc3)cc2)(C(=O)O)C1 (single isomer, unassigned) [Example 36]

Ki | Compound
30.3 nM | O=C(c1ccc(Cl)cc1)N1CCC(COc2ccc(-c3ccc(F)cc3)cc2)(C(=O)O)C1 (single isomer, unassigned) [Example 37]
3.08 nM | COc1ccc(C(=O)N2CCC(COc3cnc(-c4ccc(Cl)cc4)cn3)(C(=O)O)C2)cc1 (single isomer, unassigned) [Example 38]
48.1 nM | COc1ccc(C(=O)N2CCC(COc3cnc(-c4ccc(Cl)cc4)cn3)(C(=O)O)C2)cc1 (single isomer, unassigned) [Example 39]
2.36 nM | COc1ccc(C(=O)N2CCC(COc3ccc(-c4ccc(F)cc4)cc3)(C(=O)O)C2)cc1 (single isomer, unassigned) [Example 40]
66.9 nM | COc1ccc(C(=O)N2CCC(COc3ccc(-c4ccc(F)cc4)cc3)(C(=O)O)C2)cc1 (single isomer, unassigned) [Example 41]
2.93 nM | COc1ccc(C(=O)N2CCC(COc3ccc(-c4ncc(Cl)cn4)cc3)(C(=O)O)C2)cc1 (single isomer, unassigned) [Example 42]
145 nM | COc1ccc(C(=O)N2CCC(COc3ccc(-c4ncc(Cl)cn4)cc3)(C(=O)O)C2)cc1 (single isomer, unassigned) [Example 43]
3.83 nM | COc1ccc(C(=O)N2CCC(COc3ccc(-c4ccc(Cl)cc4)nc3)(C(=O)O)C2)cc1 (single isomer, unassigned) [Example 44]
170 nM | COc1ccc(C(=O)N2CCC(COc3ccc(-c4ccc(Cl)cc4)nc3)(C(=O)O)C2)cc1 (single isomer, unassigned) [Example 45]
23.7 nM | COc1ccc(C(=O)N2CCC(COc3ccc(-c4ccc(Cl)cn4)cc3)(C(=O)O)C2)cc1 (single isomer, unassigned) [Example 46]
226 nM | COc1ccc(C(=O)N2CCC(COc3ccc(-c4ccc(Cl)cn4)cc3)(C(=O)O)C2)cc1 (single isomer, unassigned) [Example 47]
124 nM | COc1ccc(C(=O)N2CCC(COc3cnc(-c4ccc(Cl)cc4)nc3)(C(=O)O)C2)cc1 (single isomer, unassigned) [Example 49]
1.88 nM | COc1ccc(C(=O)N2CCC(COc3cnc(-c4ccc(Cl)cc4)nc3)(C(=O)O)C2)cc1 (single isomer, unassigned) [Example 50]
19.3 nM | CCOc1ccccc1C(=O)N1CCC(COc2cnc(-c3ccc(Cl)cc3)cn2)(C(=O)O)C1 (single isomer, unassigned) [Example 51]
134 nM | CCOc1ccccc1C(=O)N1CCC(COc2cnc(-c3ccc(Cl)cc3)cn2)(C(=O)O)C1 (single isomer, unassigned) [Example 52]
17.5 nM | CCOc1ccccc1C(=O)N1CCC(COc2ccc(-c3ccc(F)cc3)cc2)(C(=O)O)C1 (single isomer, unassigned) [Example 53]
389 nM | CCOc1ccccc1C(=O)N1CCC(COc2ccc(-c3ccc(F)cc3)cc2)(C(=O)O)C1 (single isomer, unassigned) [Example 54]
28.9 nM | CCOc1ccccc1C(=O)N1CCC(COc2ccc(-c3ncc(Cl)cn3)cc2)(C(=O)O)C1 (single isomer, unassigned) [Example 55]
466 nM | CCOc1ccccc1C(=O)N1CCC(COc2ccc(-c3ncc(Cl)cn3)cc2)(C(=O)O)C1 (single isomer, unassigned) [Example 56]
29.4 nM | CCOc1ccccc1C(=O)N1CCC(COc2cnc(-c3ccc(Cl)cc3)nc2)(C(=O)O)C1 (single isomer, unassigned) [Example 57]
884 nM | CCOc1ccccc1C(=O)N1CCC(COc2cnc(-c3ccc(Cl)cc3)nc2)(C(=O)O)C1 (single isomer, unassigned) [Example 58]
98.1 nM | COc1ccccc1C(=O)N1CCC(COc2cnc(-c3ccc(Cl)cc3)cn2)(C(=O)O)C1 (single isomer, unassigned) [Example 59]
26.2 nM | COc1ccccc1C(=O)N1CCC(COc2ccc(-c3ccc(C#N)cc3)nc2)(C(=O)O)C1 (single isomer, unassigned) [Example 61]
